# Test results reported in patent US20250222146A1, “Radiopharmaceuticals Targeting Somatostatin Receptor 2 and Uses Thereof” (RayzeBio, Inc., priority 2023, published 2025).
# Where two headings read alike, the source gives them in different places. Numbered stars: 1 amine (or outer) side, 2 acyl side, 3 side chain; on linkers, the order of the positions; unused ones are H or OH. Square brackets hold non-standard residues; d marks the D form. Side chains are listed from the residue outwards. Peptide text beside a SMILES is read from it. * marks the point of attachment. DOTA(Lu)NH(CH2)6NHCOCH2 = O=C(CN1CCN2CCN3CCN(CC1)CC(=O)[O][Lu]([O]C(=O)C2)[O]C(=O)C3)NCCCCCCNC(=O)C*; X6 = O=C(CN1CCN2CCN3CCN(CC1)CC(=O)[O][Lu]([O]C(=O)C2)[O]C(=O)C3)NCCOCCOCCOCCNC(=O)C*; X17 = O=C(CN1CCN2CCN3CCN(CC1)CC(=O)[O][Lu]([O]C(=O)C2)[O]C(=O)C3)NCCNC(=O)C*; DOTA(Lu) = O=C1CN2CCN3CCN(CC(=O)*)CCN(CC2)CC(=O)[O][Lu]([O]1)[O]C(=O)C3; X5 = O=C(CN1CCN2CCN3CCN(CC1)CC(=O)[O][Lu]([O]C(=O)C2)[O]C(=O)C3)NCC*; Ala(piperidin-4-yl) = O=C([C@H](CC1CCN([*:3])CC1)N[*:1])[*:2]; dTrp(βS-Me) = C[C@@H](c1c[nH]c2ccccc12)[C@@H](N)C(=O)O; dTrp(6-Cl) = N[C@H](Cc1c[nH]c2cc(Cl)ccc12)C(=O)O; Ala(piperazin-1-yl) = N[C@@H](CN1CCNCC1)C(=O)O; NOTA = O=C(O)CN1CCN(CC(=O)O)CCN(CC(=O)*)CC1; X20 = CN(C[C@H](N[*:1])C(=O)[*:2])c1ccccc1; dNMeW = CN[C@H](Cc1c[nH]c2ccccc12)C(=O)O; Lys(iPr) = CC(C)NCCCC[C@H](N)C(=O)O; Trx = NC[C@H]1CC[C@H](C(=O)O)CC1; 3Pal = N[C@@H](Cc1cccnc1)C(=O)O; NMehCys = CN[C@@H](CCS)C(=O)O; NMeK = CN[C@@H](CCCCN)C(=O)O; NMeDap = CN[C@@H](CN)C(=O)O; NMeC = CN[C@@H](CS)C(=O)O; NMeS = CN[C@@H](CO)C(=O)O; Ahx = NCCCCCC(=O)O; βAla = NCCC(=O)O
# Target: SSTR2 (Homo sapiens, UniProt P30874)
# Experiment: SSTR binding affinity by radioligand binding competition assay ([125I]-Tyr11-Somatostatin, membrane extracts)
# Protocol: Macrocyclic peptides in this invention were tested for binding to SSTR protein by a radioligand binding competition assay. For radioligand binding assay, competition binding is performed in duplicate in the wells of a 96 well plate containing binding buffer (HEPES 25 mM pH 7.4, MgCl2 5 mM, CaCl2 1 mM, BSA 0.5%, Saponine 10 μg/ml)), membrane extracts (0.6 μg protein/well), radiotracer ([125I]-Tyr11-Somatostatin, Perkin Elmer NEX389) and test compound. Nonspecific binding is determined by co-incubation with 200-fold excess of cold competitor (SST28). The samples are incubated in a final volume of 0.1 ml for 60 min at room temperature and then filtered over UniFilter-96 GF/C (Revvity 6055690) filter plates. Filters are washed six times with 0.5 ml of ice-cold washing buffer (HEPES 25 mM pH 7.4, MgCl2 5 mM, CaCl2 1 mM) and 50 μl of Microscint 20 (Packard) are added in each well. The plates are incubated 15 min on an orbital shaker and then counted with a TopCount™ for 1 min/well. For IC50 to Ki determination, the Cheng Prusoff equation is used: Ki=IC50/(1+ [tracer]/Kd). [Tracer] is 0.1 nM as mentioned above.
# [1] = radioligand competition, [125I]-Tyr11-Somatostatin 0.1 nM, membrane extracts, Ki from IC50 by Cheng Prusoff, read-out: SSTR2 Ki
# SSTR2, sequence (P30874 whole entry): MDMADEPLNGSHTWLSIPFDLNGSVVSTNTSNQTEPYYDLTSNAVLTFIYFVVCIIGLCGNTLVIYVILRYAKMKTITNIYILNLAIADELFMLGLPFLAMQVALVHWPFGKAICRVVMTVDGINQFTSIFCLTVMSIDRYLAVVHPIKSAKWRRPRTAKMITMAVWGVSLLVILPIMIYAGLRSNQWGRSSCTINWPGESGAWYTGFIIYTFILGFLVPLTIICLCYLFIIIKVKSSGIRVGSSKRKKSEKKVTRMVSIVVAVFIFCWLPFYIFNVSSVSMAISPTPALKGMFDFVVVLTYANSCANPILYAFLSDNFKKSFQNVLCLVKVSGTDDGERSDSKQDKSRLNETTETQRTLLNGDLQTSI
Structure (SMILES),Ki [1],further results
"CC(C)[C@@H]1NC(=O)[C@H](CCCCN)NC(=O)[C@@H](Cc2ccc(NC(N)=O)cc2)NC(=O)[C@H](Cc2ccc(O)cc2)NC(=O)[C@H](C)N(C)C(=O)[C@H](Cc2ccccc2)NC1=O [RB-0002328] (HELM PEPTIDE1{F.[meA].Y.[NC(=O)Nc1ccc(C[C@@H](N[*:1])C(=O)[*:2])cc1].K.V}$PEPTIDE1,PEPTIDE1,1:R1-6:R2$$$V2.0)",,Ki (read-out: SSTR2 Ki): 1 to 3.33 nM
C[C@@H]1NC(=O)[C@H](CCSCC(=O)NCCCCCCNC(=O)CN2CCN3CCN4CCN(CC2)CC(=O)[O][Lu]([O]C(=O)C3)[O]C(=O)C4)N(C)C(=O)[C@H](Cc2ccccc2)NC(=O)[C@H]([C@@H](C)O)NC(=O)[C@H](CCCCN)NC(=O)[C@@H](Cc2c[nH]c3ccccc23)NC1=O [RB-0005696] (cyclo(A[dW]KTF[NMehCys](DOTA(Lu)NH(CH2)6NHCOCH2))),10 to 33.3 nM,
C[C@@H]1NC(=O)[C@H]([C@@H](C)O)NC(=O)[C@H](CC2CCNCC2)NC(=O)[C@@H]([C@@H](C)c2c[nH]c3ccccc23)NC(=O)[C@H](Cc2ccc(O)cc2)NC(=O)[C@H](CCSCC(=O)NCCCCCCNC(=O)CN2CCN3CCN4CCN(CC2)CC(=O)[O][Lu]([O]C(=O)C3)[O]C(=O)C4)N(C)C1=O [RB-0005807] (cyclo(A[NMehCys](DOTA(Lu)NH(CH2)6NHCOCH2)Y[dTrp(βS-Me)][Ala(piperidin-4-yl)]T)),< 1 nM,
C[C@@H](O)[C@@H]1NC(=O)[C@H](CCCCN)N(C)C(=O)[C@@H](Cc2c[nH]c3ccccc23)N(C)C(=O)[C@H](Cc2ccc(O)cc2)NC(=O)[C@H](CCSCC(=O)NCCCCCCNC(=O)CN2CCN3CCN4CCN(CC2)CC(=O)[O][Lu]([O]C(=O)C3)[O]C(=O)C4)N(C)C(=O)[C@H](Cc2ccccc2)NC1=O [RB-0003455] (cyclo(F[NMehCys](DOTA(Lu)NH(CH2)6NHCOCH2)Y[dNMeW][NMeK]T)),< 1 nM,
C[C@@H](O)[C@@H]1NC(=O)[C@H](CC2CCNCC2)NC(=O)[C@@H]([C@@H](C)c2c[nH]c3ccccc23)NC(=O)[C@H](Cc2ccc(O)cc2)NC(=O)[C@H](CCCCNC(=O)CCNC(=O)CN2CCN3CCN4CCN(CC2)CC(=O)[O][Lu]([O]C(=O)C3)[O]C(=O)C4)N(C)C(=O)[C@H](Cc2ccccc2)NC1=O [RB-0006400] (cyclo(F[NMeK]([βAla-DOTA(Lu)])Y[dTrp(βS-Me)][Ala(piperidin-4-yl)]T)),1 to 3.33 nM,
CC(C)NCCCC[C@@H]1NC(=O)[C@@H]([C@@H](C)c2c[nH]c3ccccc23)NC(=O)[C@H](Cc2ccc(O)cc2)NC(=O)[C@H](CCSCC(=O)NCCCCCCNC(=O)CN2CCN3CCN4CCN(CC2)CC(=O)[O][Lu]([O]C(=O)C3)[O]C(=O)C4)N(C)C(=O)[C@H](Cc2ccccc2)NC(=O)[C@H]([C@@H](C)O)NC1=O [RB-0006011] (cyclo(F[NMehCys](DOTA(Lu)NH(CH2)6NHCOCH2)Y[dTrp(βS-Me)][Lys(iPr)]T)),1 to 3.33 nM,
C[C@@H](O)[C@@H]1NC(=O)[C@H](CC2CCNCC2)NC(=O)[C@@H](Cc2c[nH]c3cc(Cl)ccc23)NC(=O)[C@H](Cc2ccc(O)cc2)NC(=O)[C@H](CCSCC(=O)NCCCCCCNC(=O)CN2CCN3CCN4CCN(CC2)CC(=O)[O][Lu]([O]C(=O)C3)[O]C(=O)C4)N(C)C(=O)[C@H](Cc2ccccc2)NC1=O [RB-0006189] (cyclo(F[NMehCys](DOTA(Lu)NH(CH2)6NHCOCH2)Y[dTrp(6-Cl)][Ala(piperidin-4-yl)]T)),1 to 3.33 nM,
C[C@@H](O)[C@@H]1NC(=O)[C@H](CC2CCNCC2)NC(=O)[C@@H]([C@@H](C)c2c[nH]c3ccccc23)NC(=O)[C@H](Cc2ccc(O)cc2)NC(=O)[C@H](COCCNC(=O)CN2CCN3CCN4CCN(CC2)CC(=O)[O][Lu]([O]C(=O)C3)[O]C(=O)C4)N(C)C(=O)[C@H](Cc2ccccc2)NC1=O [RB-0006095] (cyclo(F[NMeS](X5)Y[dTrp(βS-Me)][Ala(piperidin-4-yl)]T)),< 1 nM,
"CC(=O)NCCCC[C@@H]1C(=O)N[C@@H](Cc2ccc(O)cc2)C(=O)N[C@H](Cc2c[nH]c3ccccc23)C(=O)N[C@@H](CCCCN)C(=O)N[C@@H](C(C)C)C(=O)N[C@@H](Cc2ccccc2)C(=O)N1C [RB-0002593] (HELM PEPTIDE1{F.[CN([C@H](CCCCN[*:3])C(=O)[*:2])[*:1]].Y.[dW].K.V}|PEPTIDE2{[ac]}$PEPTIDE1,PEPTIDE2,2:R3-1:R2|PEPTIDE1,PEPTIDE1,1:R1-6:R2$$$V2.0)",,Ki (read-out: SSTR2 Ki): 3.33 to 10 nM
C[C@@H](O)[C@@H]1NC(=O)[C@H](CC2CCNCC2)NC(=O)[C@@H]([C@@H](C)c2c[nH]c3ccccc23)NC(=O)[C@H](Cc2ccc(O)cc2)NC(=O)[C@H](CNC(=O)[C@H](CC(=O)O)NC(=O)CCCCCNC(=O)CN2CCN3CCN4CCN(CC2)CC(=O)[O][Lu]([O]C(=O)C3)[O]C(=O)C4)N(C)C(=O)[C@H](Cc2ccccc2)NC1=O [RB-0006158] (cyclo(F[NMeDap]([Asp-Ahx-DOTA(Lu)])Y[dTrp(βS-Me)][Ala(piperidin-4-yl)]T)),1 to 3.33 nM,
C[C@@H](O)[C@@H]1NC(=O)[C@H](CCCCN)NC(=O)[C@@H](Cc2c[nH]c3ccccc23)NC(=O)[C@H](Cc2ccc(O)cc2)NC(=O)[C@H](CCSCC(=O)NCCOCCOCCOCCNC(=O)CN2CCN3CCN4CCN(CC2)CC(=O)[O][Lu]([O]C(=O)C3)[O]C(=O)C4)N(C)C(=O)CNC1=O [RB-0005286] (cyclo(G[NMehCys](X6)Y[dW]KT)),10 to 33.3 nM,
C[C@@H](O)[C@@H]1NC(=O)[C@H](CN2CCNCC2)NC(=O)[C@@H]([C@@H](C)c2c[nH]c3ccccc23)NC(=O)[C@H](Cc2ccc(O)cc2)NC(=O)[C@H](CCCCNC(=O)[C@H]2CC[C@H](CNC(=O)CN3CCN4CCN5CCN(CC3)CC(=O)[O][Lu]([O]C(=O)C4)[O]C(=O)C5)CC2)N(C)C(=O)[C@H](Cc2ccccc2)NC1=O [RB-0006420] (cyclo(F[NMeK]([Trx-DOTA(Lu)])Y[dTrp(βS-Me)][Ala(piperazin-1-yl)]T)),1 to 3.33 nM,
C[C@@H](O)[C@@H]1NC(=O)[C@H](CCCCN)NC(=O)[C@@H](Cc2c[nH]c3ccccc23)NC(=O)[C@H](Cc2cccnc2)NC(=O)[C@H](CSCC(=O)NCCCCCCNC(=O)CN2CCN3CCN4CCN(CC2)CC(=O)[O][Lu]([O]C(=O)C3)[O]C(=O)C4)N(C)C(=O)[C@H](Cc2ccccc2)NC1=O [RB-0002946] (cyclo([3Pal][dW]KTF[NMeC](DOTA(Lu)NH(CH2)6NHCOCH2))),10 to 33.3 nM,
C[C@@H](O)[C@@H]1NC(=O)[C@H](CCCCN)NC(=O)[C@@H](Cc2c[nH]c3ccccc23)NC(=O)[C@H](Cc2ccc(O)cc2)NC(=O)[C@H](CCCCNC(=O)COCCOCCNC(=O)CN2CCN3CCN4CCN(CC2)CC(=O)[O][Lu]([O]C(=O)C3)[O]C(=O)C4)N(C)C(=O)[C@H](Cc2ccccc2)NC1=O [RB-0003294],,"Ki (SSTR2 Ki, radioligand competition, [125I]-Tyr11-Somatostatin 0.1 nM, membrane extracts, Ki from IC50 by Cheng Prusoff): 1 to 3.33 nM"
C[C@@H](O)[C@@H]1NC(=O)[C@H](CC2CCNCC2)NC(=O)[C@@H]([C@@H](C)c2c[nH]c3ccccc23)NC(=O)[C@H](Cc2ccc(O)cc2)NC(=O)[C@H](CCSCC(=O)NCCNC(=O)CN2CCN3CCN4CCN(CC2)CC(=O)[O][Lu]([O]C(=O)C3)[O]C(=O)C4)N(C)C(=O)[C@H](Cc2ccccc2)NC1=O [RB-0005990] (cyclo(F[NMehCys](X17)Y[dTrp(βS-Me)][Ala(piperidin-4-yl)]T)),< 1 nM,
C[C@@H](O)[C@@H]1NC(=O)[C@H](CC2CCNCC2)NC(=O)[C@@H]([C@@H](C)c2c[nH]c3ccccc23)NC(=O)[C@H](Cc2ccc(O)cc2)NC(=O)[C@H](CCCCNC(=O)CN2CCN(CC(=O)O)CCN(CC(=O)O)CC2)N(C)C(=O)[C@H](Cc2ccccc2)NC1=O [RB-0006286] (cyclo([NMeK](NOTA)Y[dTrp(βS-Me)][Ala(piperidin-4-yl)]TF)),1 to 3.33 nM,
C[C@@H](O)[C@@H]1NC(=O)[C@H](CCCCN)NC(=O)[C@@H](Cc2c[nH]c3ccccc23)NC(=O)[C@H](Cc2ccc(O)cc2)NC(=O)[C@H](CNC(=O)C[C@H](NC(=O)CCCCCNC(=O)CN2CCN3CCN4CCN(CC2)CC(=O)[O][Lu]([O]C(=O)C3)[O]C(=O)C4)C(=O)O)N(C)C(=O)[C@H](Cc2ccccc2)NC1=O [RB-0005732],33.3 to 100 nM,
CC(C)[C@@H]1NC(=O)[C@H](CCCCN)NC(=O)[C@@H](Cc2c[nH]c3ccccc23)NC(=O)[C@H](Cc2ccc(O)cc2)NC(=O)[C@H](CCSCC(=O)NCCCCCCNC(=O)CN2CCN3CCN4CCN(CC2)CC(=O)[O][Lu]([O]C(=O)C3)[O]C(=O)C4)N(C)C(=O)[C@H](CN(C)c2ccccc2)NC1=O [RB-0004615] (cyclo(KV[X20][NMehCys](DOTA(Lu)NH(CH2)6NHCOCH2)Y[dW])),< 1 nM,
C[C@@H](O)[C@@H]1NC(=O)[C@H](CCCCN)NC(=O)[C@@H](Cc2c[nH]c3ccccc23)NC(=O)[C@H](Cc2ccc(O)cc2)NC(=O)[C@H](CCSCC(=O)N[C@H](CCCCNC(=O)CN2CCN3CCN4CCN(CC2)CC(=O)[O][Lu]([O]C(=O)C3)[O]C(=O)C4)C(=O)O)N(C)C(=O)[C@H](Cc2ccccc2)NC1=O [RB-0005276],1 to 3.33 nM,
